Assay results from patent publication US20240197728A1, “METHODS AND PHARMACEUTICAL COMPOSITIONS FOR TREATING REFRACTORY EPILEPSY” (INSERM (INSTITUT NATIONAL DE LA SANTÉ ET DE LA RECHERCHE …, priority 2021, published 2024).

Assays:
OSR1 = test: Immunoblot of OSR1 phosphorylation and expression in hippocampo-cortical slices; format: cell-based, rat; details: vs DMSO
Method: (§1) For all experiments on hippocampal cultures, neurons were pre-incubated for 2 hours with either DMSO, PCPZ or CLP257 in a CO2 incubator set at 37° C. Drugs were added directly to the culture medium. For electrophysiology experiments, neurons were also recorded in presence of these drugs in the bath. For biochemistry experiments on rat hippocampo-cortical slices, slices were incubated with either DMSO (vehicle), CLP257, PCPZ, WNK463 or sodium orthovanadate for 2 hours in interface chambers set at 37° C. For human tissue experiments, slices were pre-incubated with either DMSO, CLP257 or PCPZ for 2 hours in interface chambers set at 37° C. and then also recorded in presence of these compounds.
(§2) 8-weeks old Sprague Dawley male rats were anesthetized by intraperitoneal ketamine/xylazine injection (120/10 mg/kg) and perfused transcardially with ice-cold (0-4° C.), oxygenated solution (O2/CO2 95/5%), containing (in mM): N-methyl-d-glucamine 93, KCl 2.5, NaH2PO4 1.2, NaHCO330, HEPES 20, D-glucose 20, ascorbic acid 5, sodium pyruvate 3, MgSO4 10 and CaCl2) 0.5 (300-310 mOsm, pH7.4). Brains were removed and transverse hippocampo-cortical slices (400 m thick) were prepared in the same solution using a vibratome (HM650V, Microm). Slices were then incubated for 2-hours with DMSO, the KCC2 enhancers (CLP257, PCPZ, WNK43) or sodium orthovanadate in an interface chamber containing artificial cerebrospinal fluid (ACSF) composed of (in mM): D-glucose 10, KCl 3.5, NaHOC3 26, NaH2PO4 1.25, NaCl 126, CaCl2) 1.6 and MgCl2 1.2 (290 mOsm), equilibrated with 5% CO2 in 95% 02. After the treatments, slices were washed with cold PBS, instantaneously frozen with liquid nitrogen and stored at −80° C.
(§3) Slices were mechanically lysed on ice, using a 2 mL Dounce, in a buffer containing (in mM): Tris/HCl, pH 7.5 50, EGTA 1, EDTA 1, sodium orthovanadate 1, sodium-B-glycerophosphate 10, sodium fluoride 50, sodium pyrophosphate 5, sucrose 270, benzamidine 1, phenylmethylsulfonyl fluoride 2, Triton […], (v/v) 2-mercaptoethanol 0.1% and protease inhibitors (Roche). After complete homogenization, samples were centrifuged (16,000×g at 4° C. for 10 min) and the supernatant was collected. Protein quantification was done using Pierce BCA Protein Assay kit (Thermo Scientific) with BSA as standard.
Samples were subjected to electrophoresis on polyacrylamide gradient gels (4-12% bis-tris gels) and transferred to nitrocellulose membranes. Membranes were rinsed with TBS-tween solution (TBST; Invitrogen) and blocked with 5% (w/v) skim milk. The membranes were then immunoblotted in 5% (w/v) skim milk in TBST with a primary antibody against KCC2 (rabbit, 07-432; Millipore; 1:1000), or phosphotyrosine (mouse, clone 4G10, Millipore, 1:1000), and a mouse primary antibody against neuron-specific beta-III tubulin overnight at 4° C. (clone 2G10; T8578; Sigma-Aldrich; 1:1000). They were then washed three times with distillated water, three times with TBST-milk solution and incubated for one hour at RT with goat secondary antibodies anti-rabbit IRDye 800 (1:3000; LI-COR), goat anti-mouse IRDye 700 (1:3000; LI-COR) or donkey anti-sheep DyLight 800 (1:3000; Rockland). Membranes were then washed again with TBST three times and one time with TBS. Fluorescence was detected and the relative intensities of immunoblot bands were determined using Odyssey infrared imaging system (LI-COR Bioscience). […]

KCC2 = test: Immunoprecipitation/immunoblot of KCC2 phosphorylation and expression in hippocampo-cortical slices; format: cell-based, rat; details: for change of total KCC2 expression: slices; for change of total KCC2 expression / change of KCC2 phosphorylation at S940 / change of KCC2 phosphorylation at T906 / change of KCC2 phosphorylation at T1007: vs DMSO
Method: as §1, §2, §3
The following phosphorylation site-specific antibodies: anti-KCC3A phospho Thr1048 (0.35 mg/ml, sheep, [S0961C] 1st bleed, Dundee), anti-KCC3A phospho Thr 991 (0.26 mg/ml, sheep, [S959C] 1st bleed, Dundee) were first incubated for 30 min at 4° C. with the corresponding non-phosphorylated peptide (10 mg/ml, Dundee).
Phospho-antibodies or anti-KCC2 antibodies (07-432; Millipore) were then coupled with protein-G-Sepharose (4 Fast Flow; Sigma-Aldrich) at a ratio of […] of antibody per 100 μl of beads, for 2 h at 4° C. without agitation. 1.5 mg of clarified cell lysate was incubated with the antibody-coupled bead suspension, overnight at 4° C. under gentle agitation. The supernatant was collected after centrifugation and beads were washed twice with NaCl solution (0.25M NaCl in 1×PBS) and twice with PBS alone. Bound proteins were eluted with 2×LDS sample buffer (Invitrogen) containing 0.5% (v/v) 2-mercaptoethanol and denaturated at 75° C. for 20 min (IP with phospho-antibodies) or 37° C. for 1 h (IP with anti-KCC2 antibodies) before centrifugation (13,000×g at 4° C. for 15-20 min).
Samples were subjected to electrophoresis on polyacrylamide gradient gels (4-12% bis-tris gels) and transferred to nitrocellulose membranes. Membranes were rinsed with TBS-tween solution (TBST; Invitrogen) and blocked with 5% (w/v) skim milk. The membranes were then immunoblotted in 5% (w/v) skim milk in TBST with a primary antibody against KCC2 (rabbit, 07-432; Millipore; 1:1000), or phosphotyrosine (mouse, clone 4G10, Millipore, 1:1000), and a mouse primary antibody against neuron-specific beta-III tubulin overnight at 4° C. (clone 2G10; T8578; Sigma-Aldrich; 1:1000). […]

[1] = tested on: extrasynaptic GABAA receptors; test: GABAA receptor-mediated currents evoked by focal isoguvacine or RubiGABA uncaging; format: cell-based, rat
recombinant human WNK3 = molecular target: T1, recombinant human WNK3 (Homo sapiens, UniProt Q9BYP7); test: Radiometric kinase profiling assay; format: biochemical; details: 70 μM ATP
T1 construct: purchased Eurofins Discovery (KinaseProfiler, contractor)
Method: Kinase activity profiles (data not shown) were performed using radiometric assays to measure kinase catalytic activity for PCPZ concentrations ranging 0.1-500 μM in DMSO or CLP257 concentrations ranging 0.1-1000 μM in DMSO, in the presence of 70 μM ATP. Equimolar DMSO concentrations were used as control. Additional information on the kinase profiler assay can be obtained from the contractor's website. (https://www.eurofinsdiscoveryservices.com/cms/cms-content/services/in-vitro-assays/kinases/kinase-profiler).

T1 sequence (Q9BYP7 whole entry): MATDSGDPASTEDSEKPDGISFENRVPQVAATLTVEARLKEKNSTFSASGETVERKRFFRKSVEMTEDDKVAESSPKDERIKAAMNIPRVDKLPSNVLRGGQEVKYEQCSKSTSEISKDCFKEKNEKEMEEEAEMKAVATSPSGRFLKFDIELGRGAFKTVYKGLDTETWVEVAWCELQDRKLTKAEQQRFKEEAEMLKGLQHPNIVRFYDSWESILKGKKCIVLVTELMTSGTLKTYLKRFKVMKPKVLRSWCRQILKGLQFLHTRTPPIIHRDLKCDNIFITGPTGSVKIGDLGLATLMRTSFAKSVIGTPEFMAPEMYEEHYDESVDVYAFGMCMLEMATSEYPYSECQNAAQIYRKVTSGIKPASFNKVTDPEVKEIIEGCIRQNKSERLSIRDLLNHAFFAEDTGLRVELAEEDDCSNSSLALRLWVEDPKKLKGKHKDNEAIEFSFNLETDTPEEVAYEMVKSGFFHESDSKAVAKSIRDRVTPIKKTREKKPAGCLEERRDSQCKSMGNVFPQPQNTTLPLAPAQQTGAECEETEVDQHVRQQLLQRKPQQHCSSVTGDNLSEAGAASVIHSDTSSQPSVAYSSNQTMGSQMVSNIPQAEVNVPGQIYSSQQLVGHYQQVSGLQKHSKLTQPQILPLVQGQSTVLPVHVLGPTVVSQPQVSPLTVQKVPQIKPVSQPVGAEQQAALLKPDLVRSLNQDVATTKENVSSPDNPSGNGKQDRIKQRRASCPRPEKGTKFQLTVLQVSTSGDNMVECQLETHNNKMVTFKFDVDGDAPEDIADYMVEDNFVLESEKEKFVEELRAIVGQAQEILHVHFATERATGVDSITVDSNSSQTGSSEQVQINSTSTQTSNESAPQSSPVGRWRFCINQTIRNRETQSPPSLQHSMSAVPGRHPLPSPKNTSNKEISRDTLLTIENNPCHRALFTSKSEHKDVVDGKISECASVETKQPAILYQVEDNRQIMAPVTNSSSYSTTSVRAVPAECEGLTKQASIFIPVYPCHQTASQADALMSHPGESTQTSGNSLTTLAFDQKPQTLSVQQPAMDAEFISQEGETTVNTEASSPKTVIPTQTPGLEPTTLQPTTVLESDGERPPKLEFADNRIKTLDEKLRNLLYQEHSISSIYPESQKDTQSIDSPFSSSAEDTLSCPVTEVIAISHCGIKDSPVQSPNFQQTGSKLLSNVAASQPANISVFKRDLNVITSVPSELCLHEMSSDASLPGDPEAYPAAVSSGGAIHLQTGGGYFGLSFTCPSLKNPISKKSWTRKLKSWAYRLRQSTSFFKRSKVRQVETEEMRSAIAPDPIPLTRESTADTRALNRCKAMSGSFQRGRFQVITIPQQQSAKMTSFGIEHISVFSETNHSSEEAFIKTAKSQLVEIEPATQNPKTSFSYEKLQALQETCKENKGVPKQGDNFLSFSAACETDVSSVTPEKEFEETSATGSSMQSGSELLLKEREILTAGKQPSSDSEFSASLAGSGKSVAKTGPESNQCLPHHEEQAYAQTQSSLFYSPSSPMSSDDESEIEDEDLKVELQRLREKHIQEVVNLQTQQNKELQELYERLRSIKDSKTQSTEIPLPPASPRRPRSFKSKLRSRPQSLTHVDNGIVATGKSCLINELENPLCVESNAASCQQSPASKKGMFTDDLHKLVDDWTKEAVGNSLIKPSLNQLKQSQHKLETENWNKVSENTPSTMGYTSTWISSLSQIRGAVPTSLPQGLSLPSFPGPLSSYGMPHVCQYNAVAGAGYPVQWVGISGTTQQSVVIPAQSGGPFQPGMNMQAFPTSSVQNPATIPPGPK

Structure (SMILES): O=C1N=C(N2CCCCN2)S/C1=C\c1ccc(F)cc1O [CLP257, (5Z)-5-[(4-Fluoro-2-hydroxyphenyl)methylene]-2-(tetrahydro-1-(2H)-pyridazinyl)-4(5H)-thiazolone]
- change of OSR1 phosphorylation (S325 residue) (OSR1; 100 μM CLP257, 2 h): +11.50±18.50%
- change of total expression of OSR1 (OSR1; 100 μM CLP257, 2 h): −2.24±8.27%
- change of tyrosine phosphorylation of KCC2 (KCC2; 100 μM CLP257, 2 h): +19.00±15.00%
- change of total KCC2 expression (KCC2; 100 μM CLP257, 2 h): −6.92±11.80%
- change of KCC2 phosphorylation at S940 (KCC2; 100 μM CLP257, 2 h): −19.70±34.40%
- change of KCC2 phosphorylation at T906 (KCC2; 100 μM CLP257, 2 h): −12.70±10.90%
- change of KCC2 phosphorylation at T1007 (KCC2; 100 μM CLP257, 2 h): −18.50±17.10%
- decay time constant of GABAA receptor-mediated currents ([1]; 100 μM CLP257, RubiGABA 30 μM, control 124.39±9.12): 218.22 ± 21.05 ms
- amplitude of GABAA receptor-mediated currents ([1]; 100 μM CLP257, RubiGABA 30 μM, control 164.70±4.56): 162.04±6.62 pA
- inhibition of WNK3 kinase activity (recombinant human WNK3; CLP257 0.1-1000 μM): no direct inhibitory effect

Structure (SMILES): CN1CCN(CCCN2c3ccccc3Sc3ccc(Cl)cc32)CC1 [PCPZ, prochlorperazine]
- change of OSR1 phosphorylation (S325 residue) (OSR1; 10 μM PCPZ, 2 h): +11.80±23.50%
- change of total expression of OSR1 (OSR1; 10 μM PCPZ, 2 h): +26.3±12.8%
- change of tyrosine phosphorylation of KCC2 (KCC2; 10 μM PCPZ, 2 h): +6.38±14.7%
- change of total KCC2 expression (KCC2; 10 μM PCPZ, 2 h): +12.1±32.8%
- change of KCC2 phosphorylation at S940 (KCC2; 10 μM PCPZ, 2 h): +20.30±18.70%
- change of KCC2 phosphorylation at T906 (KCC2; 10 μM PCPZ, 2 h): −10.20±10.40%
- change of KCC2 phosphorylation at T1007 (KCC2; 10 μM PCPZ, 2 h): +26.40%±17.00
- decay time constant of GABAA receptor-mediated currents ([1]; acute 10 μM PCPZ, isoguvacine 100 μM, control 127.66±10.23): 130.81 ± 10.48 ms
- amplitude of GABAA receptor-mediated currents ([1]; acute 10 μM PCPZ, isoguvacine 100 μM, control 150.73±17.50): 157.51±25.46 pA
- inhibition of WNK3 kinase activity (recombinant human WNK3; PCPZ 0.1-500 μM): no direct inhibitory effect
